Structures can show the parent of a compound that is named as a salt. Values belong to the compound of their own block, whether it stands above or below them.
Columns and labels:
Type in all cases: cell-based
[1] = tested on: potassium channel currents; assay: Whole cell recording of potassium currents from cultured hippocampal neurons; conditions: 2 μM, p=0.0006
Experimental: (§1) The neuroprotective and cognition enhancing effects of the compounds of this invention were evaluated in an in vitro standard pharmacological test procedure which measured the effects of 5α-pregnan-3β-ol-20-one 3-sulfate ester sodium salt, as a representative compound of this invention, on calcium and potassium channel currents. Briefly, the following procedure was used.
(§2) Whole cell recording techniques were used to record calcium and potassium currents from cultured hippocampal neurons. The compounds to be evaluated were made fresh each day in a 400 μM ethanol stock solution. The test compounds were diluted in saline to obtain a final concentration of 2 μM. The amplitude of calcium or potassium currents in control, test compound, and washout solutions was measured from at least 10 current traces for each condition. To compensate for rundown of the calcium current with time, control and washout currents were averaged. The current amplitude with drug was divided by the averaged control and washout current to determine the percent change. The means, standard deviations and errors for each test compound were calculated and significance from control was determined using the paired T-Test.

calcium channel currents = assay: Whole cell recording of calcium currents from cultured hippocampal neurons; conditions: 2 μM, p=0.044
Experimental: as §1, §2

progesterone receptors = molecular target: T1, progesterone receptors (Homo sapiens, UniProt P06401); assay: Stimulation of alkaline phosphatase enzyme activity in T47D cells (progestational activity); conditions: for concentrations required for activity (alkaline phosphatase induction): T47D cells, reference progestins
T1 construct: endogenous in cells; host or cells: T47D human breast cancer cells
T1 sequence (P06401 1-933): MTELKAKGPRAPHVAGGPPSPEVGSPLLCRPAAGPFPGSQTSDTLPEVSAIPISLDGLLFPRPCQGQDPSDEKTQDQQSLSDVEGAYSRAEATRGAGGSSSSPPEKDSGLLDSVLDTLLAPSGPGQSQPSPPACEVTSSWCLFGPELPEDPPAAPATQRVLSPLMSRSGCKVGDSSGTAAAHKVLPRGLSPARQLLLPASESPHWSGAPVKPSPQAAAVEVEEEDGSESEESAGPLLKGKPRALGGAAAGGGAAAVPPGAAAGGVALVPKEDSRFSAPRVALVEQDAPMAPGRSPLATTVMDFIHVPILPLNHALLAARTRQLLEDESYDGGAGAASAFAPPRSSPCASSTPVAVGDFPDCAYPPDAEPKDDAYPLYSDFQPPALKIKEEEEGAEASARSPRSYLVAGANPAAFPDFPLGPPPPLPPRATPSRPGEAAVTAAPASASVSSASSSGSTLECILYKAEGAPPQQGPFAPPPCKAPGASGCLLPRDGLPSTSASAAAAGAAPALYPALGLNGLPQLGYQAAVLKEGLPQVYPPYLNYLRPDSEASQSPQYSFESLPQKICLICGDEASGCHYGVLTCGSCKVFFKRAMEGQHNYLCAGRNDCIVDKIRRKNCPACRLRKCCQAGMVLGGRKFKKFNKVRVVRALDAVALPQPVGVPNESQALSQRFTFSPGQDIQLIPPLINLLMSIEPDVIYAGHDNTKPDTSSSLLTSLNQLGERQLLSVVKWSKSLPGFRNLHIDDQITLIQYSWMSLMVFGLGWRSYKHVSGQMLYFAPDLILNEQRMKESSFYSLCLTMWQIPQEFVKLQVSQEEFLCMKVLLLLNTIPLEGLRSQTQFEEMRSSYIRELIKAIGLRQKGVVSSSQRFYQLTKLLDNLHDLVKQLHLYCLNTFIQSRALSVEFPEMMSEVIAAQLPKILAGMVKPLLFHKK
From the text: In this test procedure, the progestational activity of a compound is quantified based on its stimulation of alkaline phosphatase enzyme activity in T47D cells, a human breast cancer cell line which expresses high levels of progesterone receptors. This is a well established test procedure in which both the progestin receptors and the response stimulated by activated progestin receptors are endogenous to the cells. Cells are pre-conditioned in low serum medium for one day and then treated with test compounds.

SMILES: CC(O)C1CCC2C3CCC4CC(O)CCC4(C)C3CCC12C (stereo not drawn) [5α-Pregnan-3β,20β-diol]
increase of potassium channel currents versus control [1]: 21.76±2.40%

SMILES: CC(=O)[C@H]1CC[C@H]2[C@@H]3CC[C@H]4C[C@@H](OS(=O)(=O)O)CC[C@]4(C)[C@H]3CC[C@]12C [5α-pregnan-3β-ol-20-one 3-sulfate ester sodium salt]
decrease of calcium channel currents versus control (calcium channel currents): 4.64±1.64%
IC50 (progesterone receptors): 5 µM

concentrations required for activity (alkaline phosphatase induction) (progesterone receptors): low nanomolar
SMILES: CC(=O)O[C@]1(C(C)=O)CC[C@H]2[C@@H]3C[C@H](C)C4=CC(=O)CC[C@]4(C)[C@H]3CC[C@@]21C [medroxyprogesterone acetate]

concentrations required for activity (alkaline phosphatase induction) (progesterone receptors): low nanomolar
SMILES: CC(=O)[C@H]1CC[C@H]2[C@@H]3CCC4=CC(=O)CC[C@]4(C)[C@H]3CC[C@]12C [progesterone]

— patent publication US6395723B2, “Method of providing coginition enhancement with 5α-pregnan-3β-ol-20-one sulfate” (Wyeth, priority 1997, dated 2002)
